# Experimental data from patent US20060167242A1, “Cephalosporin in crystalline form” (priority 2004, published 2006).
# Assay: Determination of storage stability of crystalline material (HPLC analysis after storage)
# Assay type: physicochemical
# Procedure: Determination of Storage Stability of Crystalline Material of Formula I
# A crystalline and an amorphous sample of (6R,7R)-7-[(Z)-2-(5-Amino-[1,2,4]thiadiazol-3yl)-2-hydroxyimino-acetylamino1-8-oxo-3-[(E)-(R)-1′-(5-methyl-2-oxo-1,3]dioxol-4-ylmethoxycarbonyl)-2-oxo-[1,3′]bipyrrolidinyl-3-ylidenemethyl]-8-oxo-5-thia-1-aza-bicyclo[4.2.0]oct-2-ene-2-carboxylic acid were stored at different temperatures for 24 hours, 28 days and for 3 months.
# [1] = 3 months, 5° C. (as compared to −20° C.)
# [2] = storage for 3 months, Temperature 5, Rel. Humidity Ca. 58%
# [3] = storage for 3 months, Temperature 25, Rel. Humidity Ca. 58%
# [4] = storage for 3 months, −20° C., Rel. Humidity Not defined
# [5] = storage for 24 hours, Temperature 5, Rel. Humidity Ca. 58%
# [6] = storage for 24 hours, Temperature 25, Rel. Humidity Ca. 58%
# [7] = storage for 24 hours, Temperature 40, Rel. Humidity Ca. 75%
# [8] = storage for 24 hours, Temperature 60, Rel. Humidity Ca. 75%
# [9] = storage for 24 hours, −20° C., Rel. Humidity Not defined
# [10] = storage for 28 days, Temperature 5, Rel. Humidity Ca. 58%
# [11] = storage for 28 days, Temperature 25, Rel. Humidity Ca. 58%
# [12] = storage for 28 days, −20° C., Rel. Humidity Not defined
decomposition on storage (in words) [1],"decomposition on storage (in words) (3 months, 25° C.)","decomposition on storage (in words) (28 days, 5° C.)",Area-% (HPLC) [2],Area-% (HPLC) [3],Area-% (HPLC) [4],Area-% (HPLC) [5],Area-% (HPLC) [6],Area-% (HPLC) [7],Area-% (HPLC) [8],"decomposition on storage (in words) (storage for 24 hours, temperatures above 5° C.)",Area-% (HPLC) [9],Area-% (HPLC) [10],Area-% (HPLC) [11],Area-% (HPLC) [12],"decomposition on storage (in words) (28 days, 25° C.)","stability on storage (in words) (storage for 24 hours, whole temperature range of investigation)",Compound
slight decomposition,strongly decreased,decreased,96.9 Area-%,91.4 Area-%,97.6 Area-%,99.05 Area-%,98.85 Area-%,98.25 Area-%,96.67 Area-%,decomposed significantly,99.04 Area-%,98.1 Area-%,96.4 Area-%,98.6 Area-%,,,"Cc1oc(=O)oc1COC(=O)N1CC[C@@H](N2CC/C(=C\C3=C(C(=O)O)N4C(=O)[C@@H](NC(=O)/C(=N\O)c5nsc(N)n5)[C@H]4SC3)C2=O)C1 [amorphous compound I, (6R,7R)-7-[(Z)-2-(5-Amino-[1,2,4]thiadiazol-3yl)-2-hydroxyimino-acetylamino1-8-oxo-3-[(E)-(R)-1′-(5-methyl-2-oxo-1,3]dioxol-4-ylmethoxycarbonyl)-2-oxo-[1,3′]bipyrrolidinyl-3-ylidenemethyl]-8-oxo-5-thia-1-aza-bicyclo[4.2.0]oct-2-ene-2-carboxylic acid]"
no decomposition,slight decomposition,,93.9 Area-%,93.4 Area-%,94 Area-%,95.7 Area-%,95.75 Area-%,95.45 Area-%,95.57 Area-%,,95.77 Area-%,95.2 Area-%,94.9 Area-%,95.3 Area-%,slight decomposition,very good stability,"Cc1oc(=O)oc1COC(=O)N1CC[C@@H](N2CC/C(=C\C3=C(C(=O)O)N4C(=O)[C@@H](NC(=O)/C(=N\O)c5nsc(N)n5)[C@H]4SC3)C2=O)C1.Cl [crystalline compound II, (6R,7R)-7-[(Z)-2-(5-Amino-[1,2,4]thiadiazol-3-yl) -2-hydroxyimino-acetylamino]-8-oxo-3-[(E)-(R)-1′-(5-methyl-2-oxo-[1,3]dioxol-4-ylmethoxycarbonyl)-2-oxo-[1,3′]bipyrrolidinyl-3-ylidenemethyl]-8-oxo5-thia-1-aza-bicyclo[4.2.0]oct-2-ene-2-carboxylic acid Hydrochloride Trihydrate]"
